Broadly, the viability, T/C is the result in the treated group divided by that in the control group, in per cent. By IC50 is commonly meant the midpoint of a concentration-inhibition curve.

The subject of the test is 653999-131-R-J2-PDC complex spheroids, growth % test/control. Description: Anticancer human tumor 653999-131-R-J2-PDC patient-derived lung adenocarcinoma cell line growth inhibition [AhR]. Conditions: for viability, T/C: stronger effect = lower value. The source says: Multicellular complex tumor spheroid response to aryl hydrocarbon receptor antagonists in combination with a variety of drugs and investigational agents in selected tumor cell lines
The current study was undertaken to assess response to aryl hydrocarbon receptor antagonists in combination with standard-of-care drugs and investigational agents in solid tumor complex spheroid models. Complex spheroids include a stromal component modeled by human endothelial cells (HUVEC) and fibroblasts modeled by human mesenchymal stem cells (MSCs). The concentration ranges selected for each drug and investigational agent were based upon clinically achievable concentrations if the clinical Cmax of the agent was known.
Compounds. The drugs and investigational agents: BAY 2416964 (NSC825713), GNF351 (NSC835774), CH-223191 (NSC835775), CPI-455 (NSC825282), aza-TdCyd (NSC777586), decitabine (NSC127716), belinostat (NSC758774), entinostat (NSC756642), pevonedistat (NSC761192), tazemetostat (NSC777109), talazoparib (NSC765396), olaparib (NSC753686), selinexor (NSC780203), nedisertib (M3814, NSC802822), bortezomib (NSC756655), venetoclax (NSC766270), doxorubicin (NSC123127), elimusertib (BAY189344, NSC800525), ceralasertib (AZD6738, NSC777638), TAK-243 (NSC785004), alisertib (NSC759677), etoposide (NSC141540), topotecan (NSC609699), eribulin (NSC707389), gemcitabine (NSC613327), carboplatin (NSC241240), cisplatin (NSC119875), and SN-38 (NSC673596) were obtained from the National Cancer Institute (NCI) Developmental Therapeutics Program Chemical Repository (32). The FDA-approved anticancer drug set is available from the Developmental Therapeutics Program at https://dtp.cancer.gov/organization/dscb/obtaining/available plates.htm. […] The stock solutions were prepared in dimethyl sulfoxide (DMSO, Sigma-Aldrich, St. Louis, MO, cat. D2650), except for the platinum compounds which were prepared in saline (Quality Biological, Gaithersburg, MD, cat. 114-055-101), at 800-fold the tested concentration and stored at -70 degrees C prior to their use. All drugs and investigational agents were tested over a range starting from a high concentration at or near the clinical Cmax and decreasing in half-log increments. If the clinical Cmax for an agent had not been determined, the highest concentration tested was 10 microM (Table 1).
Cell Culture. All cells were maintained in an incubator at 37 degrees C and 5% CO2 with 95% humidity. The PDC lines were cultured according to standard operating procedures established by the NCI PDMR (https://pdmr.cancer.gov). Briefly, all PDCs were thawed and cultured in Matrigel-coated flasks prepared with a working solution of 1X Ham's F-12 nutrient mix, without supplementation (Invitrogen, Waltham, MA, cat. 11765054), 100 U/mL penicillin-streptomycin (Invitrogen, cat. 15140122), and 2.5% Matrigel (Corning Inc., Corning, NY, cat. 354248) for the first three passages. All PDCs were cultured in complete DMEM/F-12 media containing advanced DMEM/F-12 (Invitrogen, cat. 12634028), 4.9% defined fetal bovine serum, heat inactivated (HyClone Laboratories Inc., Logan, UT, cat. SH30070.03HI), 389 ng/mL hydrocortisone (Sigma-Aldrich, cat. H4001), 9.7 ng/mL human EGF recombinant protein (Invitrogen, cat. PHG0313), 23.4 microg/mL adenine (Sigma-Aldrich, cat. A2786), 97.3 U/mL penicillin-streptomycin (Invitrogen, cat. 15140122), 1.9 mM L-glutamine (Invitrogen, cat. 25030081), and 9.7 microM Y-27632 dihydrochloride (Tocris Bioscience, Bristol, United Kingdom, cat. 1254). The PDCs were cultured in complete DMEM/F12 media without 10 microM Y-27632 dihydrochloride for at least two passages prior to the screen. The established cell lines NCI-H1341 and […] were cultured in DMEM/F-12, HEPES (Invitrogen, cat. 11330032), 5% defined fetal bovine serum (HyClone Laboratories Inc., cat. SH30070.03), ITS premix universal culture supplement [insulin (5 microg/mL), transferrin (5 microg/mL), and selenious acid (5 ng/mL)] […]

Setting [1] is: curve of first compound, second compound 0.1 µM.
Where [2] appears, read: curve of first compound, second compound 0.316 µM.
Where [3] appears, read: curve of first compound, second compound 1 µM.
Where [4] appears, read: curve of first compound, second compound 3.16 µM.
The mark [5] stands for this setting: curve of first compound, second compound 10 µM.
[6] abbreviates: second compound 0.1 µM, first compound 0.0316 µM.
Setting [7] is: second compound 0.1 µM, first compound 0.1 µM.
Setting [8] is: second compound 0.1 µM, first compound 0.316 µM.
The mark [9] stands for this setting: second compound 0.1 µM, first compound 1 µM.
Setting [10] is: second compound 0.316 µM, first compound 0.0316 µM.
Setting [11] is: second compound 0.316 µM, first compound 0.1 µM.
Setting [12] is: second compound 0.316 µM, first compound 0.316 µM.
Where [13] appears, read: second compound 0.316 µM, first compound 1 µM.
[14] abbreviates: second compound 1 µM, first compound 0.0316 µM.
[15] abbreviates: second compound 1 µM, first compound 0.1 µM.
The mark [16] stands for this setting: second compound 1 µM, first compound 0.316 µM.
The mark [17] stands for this setting: second compound 1 µM, first compound 1 µM.
[18] abbreviates: second compound 3.16 µM, first compound 0.0316 µM.
Setting [19] is: second compound 3.16 µM, first compound 0.1 µM.
[20] abbreviates: second compound 3.16 µM, first compound 0.316 µM.
Where [21] appears, read: second compound 3.16 µM, first compound 1 µM.
Setting [22] is: second compound 10 µM, first compound 0.0316 µM.
Where [23] appears, read: second compound 10 µM, first compound 0.1 µM.
[24] abbreviates: second compound 10 µM, first compound 0.316 µM.
Setting [25] is: second compound 10 µM, first compound 1 µM.

SMILES strings stand for the structures. Several values for one entry are separate records, joined by “and”; a condition that tells them apart may be missing. Equal entries are not always repeated. Bounds are passed on as bounds.
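Further: spheroids exposed to agents for seven days.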

For `CC(C)c1c(-c2ccccc2)nc2c(C#N)c[nH]n2c1=O`, the viability, T/C (compound 0.0316 µM) is 109% and 93.9% and 110%; the viability, T/C (compound 0.1 µM) is 112% (2×) and 109%; the viability, T/C (compound 0.316 µM) is 96.8% and 108% and 104%; the viability, T/C (compound 1 µM) was 90.2% and 116% and 109%; the viability, T/C (compound 3.16 µM) is 103% and 101% (2×); the viability, T/C (compound 10 µM) was 96.2% (2×) and 103%. Further, the IC50 (curve of compound) is > 10 µM.

`CC(CO)NC(=O)c1cc(-c2ccc(Cl)cc2)nn(-c2cnn(C)c2)c1=O` (stereo not given): the viability, T/C (compound 0.1 µM) was 93.8% [middle of 20 runs]. For the same molecule, the IC50 (compound alone, run of 05/31/2022) was > 10 µM.

For the molecule `CC1COCCN1c1cc(C2(S(C)(=N)=O)CC2)nc(-c2ccnc3[nH]ccc23)n1` (stereo not given), the viability, T/C runs as follows: (compound 0.0316 µM) 109% and 102% and 99.7%; (compound 0.1 µM) 110% and 106% and 102%; (compound 0.316 µM) 104% and 101% and 107%; (compound 1 µM) 101% and 98.8% and 94.3%; (compound 3.16 µM) 87.2% and 70.5% and 81.3%; (compound 10 µM) 50.6% and 45.6% and 57.8%. Moreover, the IC50 (curve of compound) was > 10 µM and 8.16 µM.

With `COc1ccc([C@@H](O)c2cc(-c3ncnc4cc(N5CCOCC5)ccc34)c(F)cc2Cl)nn1`, the viability, T/C (compound 0.0316 µM) was 112% and 97% and 106%; the viability, T/C (compound 0.1 µM) was 105% and 114% and 103%; the viability, T/C (compound 0.316 µM) is 100% and 91.4% and 81.3%; the viability, T/C (compound 1 µM) is 90.5% and 90.1% and 83.8%; the viability, T/C (compound 3.16 µM) was 66.2% and 61.9% and 69.9%; the viability, T/C (compound 10 µM) was 44.8% and 45.4% and 42.3%. For the same molecule, under “curve of compound”, the concentration for half-maximal inhibition (IC50) is 7.57 µM and 7.28 µM and 7.56 µM.

Take `Cc1ccccc1N=Nc1ccc(NC(=O)c2ccnn2C)c(C)c1`: the viability, T/C was 96.6% [middle of 19 runs] (compound 0.1 µM) and 95.3% [middle of 20 runs] (compound 1 µM). Also, the IC50 (compound alone, run of 06/14/2022) is > 10 µM.

Consider `Cc1cncc(-c2nc(NCCc3c[nH]c4ccccc34)c3ncn(C(C)C)c3n2)c1`, for which the viability, T/C (compound 0.1 µM) was 92.6% [middle of 20 runs]; the viability, T/C (compound 0.316 µM) is 97% [middle of 20 runs]; the viability, T/C (compound 1 µM) is 101% [middle of 20 runs]; the viability, T/C (compound 10 µM) was 52% [middle of 20 runs].

`COc1cccc2c1C(=O)c1c(O)c3c(c(O)c1C2=O)CC(O)(C(=O)CO)CC3OC1CC(N)C(O)C(C)O1` (stereo not given) + CC(CO)NC(=O)c1cc(-c2ccc(Cl)cc2)nn(-c2cnn(C)c2)c1=O: the IC50 came to 0.136 µM under setting [1]; 0.124 µM under setting [2]; 0.144 µM under setting [3]; 0.167 µM under setting [4]; 0.131 µM under setting [5]. Moreover, the viability, T/C under setting [6] is 60.7%; the viability, T/C under setting [7] was 53%; the viability, T/C under setting [8] is 35%; the viability, T/C under setting [9] was 11.7%; the viability, T/C (second compound 0.1 µM, first compound 3.16 µM) is 6.06%; the viability, T/C (second compound 0.1 µM, first compound 10 µM) is 19.9%. For the same molecule, the viability, T/C was 62.3% under setting [10]; 52.8% under setting [11]; 31.1% under setting [12]; 10.4% under setting [13]; 4.91% (second compound 0.316 µM, first compound 3.16 µM); 20.9% (second compound 0.316 µM, first compound 10 µM). Moreover, the viability, T/C under setting [14] is 71%; the viability, T/C under setting [15] is 57%; the viability, T/C under setting [16] was 33%; the viability, T/C under setting [17] was 11.2%; the viability, T/C (second compound 1 µM, first compound 3.16 µM) is 4.47%; the viability, T/C (second compound 1 µM, first compound 10 µM) was 18.9%. Also, the viability, T/C runs as follows: under setting [18], 62.9%; under setting [19], 49.5%; under setting [20], 42.3%; under setting [21], 6.87%; (second compound 3.16 µM, first compound 3.16 µM) 7.41%; (second compound 3.16 µM, first compound 10 µM) 20.7%. The viability, T/C reads like this: under setting [22], 73.4%; under setting [23], 54.6%; under setting [24], 31.8%; under setting [25], 5.67%; (second compound 10 µM, first compound 3.16 µM) 9.25%; (second compound 10 µM, first compound 10 µM) 21.4%.

As for `Nc1ncn(C2CC(O)C(CO)O2)c(=O)n1` (stereo not given) + CC(CO)NC(=O)c1cc(-c2ccc(Cl)cc2)nn(-c2cnn(C)c2)c1=O, the half-maximal inhibitory concentration (IC50) by setting is: under setting [1], > 1 µM; under setting [2], > 1 µM; under setting [3], > 1 µM; under setting [4], > 1 µM; under setting [5], > 1 µM. Besides, the viability, T/C (second compound 0.1 µM, first compound 0.00316 µM) was 106%; the viability, T/C (second compound 0.1 µM, first compound 0.01 µM) was 110%; the viability, T/C under setting [6] was 103%; the viability, T/C under setting [7] was 89.4%; the viability, T/C under setting [8] was 84.5%; the viability, T/C under setting [9] is 79.9%. The viability, T/C reads like this: (second compound 0.316 µM, first compound 0.00316 µM) 106%; (second compound 0.316 µM, first compound 0.01 µM) 110%; under setting [10], 118%; under setting [11], 89.8%; under setting [12], 91.3%; under setting [13], 83%. In addition, the viability, T/C was 104% (second compound 1 µM, first compound 0.00316 µM); 108% (second compound 1 µM, first compound 0.01 µM); 122% under setting [14]; 109% under setting [15]; 88.4% under setting [16]; 86.4% under setting [17]. For the same molecule, the viability, T/C was 106% (second compound 3.16 µM, first compound 0.00316 µM); 111% (second compound 3.16 µM, first compound 0.01 µM); 119% under setting [18]; 110% under setting [19]; 90.9% under setting [20]; 87.8% under setting [21]. Also, the viability, T/C was 117% (second compound 10 µM, first compound 0.00316 µM); 116% (second compound 10 µM, first compound 0.01 µM); 109% under setting [22]; 126% under setting [23]; 99% under setting [24]; 109% under setting [25].

These data come from PubChem BioAssay AID1919000 (Molecular Pharmacology Branch, DTP, NCI, 2023).
